*1 amine or outer side, *2 acyl side, *3 side chain or, on linkers, in order; H or OH if unused. Where a SMILES comes first, the peptide text is derived from it. Bridges are numbered along the chain shown (N, C = ends). [ ]: non-standard residue; d: D form. X1 = O=C(O)CCCCCCCCCCCCCCCCCCC(=O)N[C@@H](CCCCNC(=O)COCCOCCNC(=O)COCCOCCNC(=O)CCC(=O)N(CCNC(=O)C[*:1])CCNC(=O)C[*:2])C(=O)O; tBuAla = CC(C)(C)C[C@H](N)C(=O)O; αMeL = CC(C)C[C@](C)(N)C(=O)O; Aib = CC(C)(N)C(=O)O
Tests used:
Assay type in all cases: cell-based
GLP-1R = target: T1, GLP-1R (Homo sapiens, UniProt P43220); experiment: CreLuc method (CRE-luciferase reporter), HEK293/pGM-CREB-L-Luc/GLP-1R pool; details: 6 h incubation, read-out: EC50 (pM) for each receptor GLP-1R
T1 construct: expressed in transfected cells
T1 sequence (P43220 24-463, species assumed): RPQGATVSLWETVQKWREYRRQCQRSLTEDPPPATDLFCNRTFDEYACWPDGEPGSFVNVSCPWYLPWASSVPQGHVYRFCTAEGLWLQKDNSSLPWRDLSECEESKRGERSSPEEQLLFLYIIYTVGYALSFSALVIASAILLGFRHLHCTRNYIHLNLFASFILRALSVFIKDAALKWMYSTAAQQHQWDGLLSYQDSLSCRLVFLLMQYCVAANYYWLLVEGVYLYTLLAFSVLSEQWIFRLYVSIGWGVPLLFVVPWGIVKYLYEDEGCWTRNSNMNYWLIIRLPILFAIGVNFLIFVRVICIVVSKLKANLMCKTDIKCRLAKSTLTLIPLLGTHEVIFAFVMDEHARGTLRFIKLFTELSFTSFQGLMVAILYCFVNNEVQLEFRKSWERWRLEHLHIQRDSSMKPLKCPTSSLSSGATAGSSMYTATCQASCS
Protocol: (§1) 1. Insulinotropic analogues can bind to the target receptor on the cell membrane, activate the cAMP response element (CRE), and initiate the expression of downstream luciferase. The expression level is positively correlated with the biological activity of the analogue being tested. After activation, luciferase substrate is added for chemiluminescence detection, and the luminescence intensity is determined to characterize the biological activity of the test compounds. Therefore, the target peptide derivatives (or polypeptide derivatives, i.e., TG1-TG94) prepared in Example 1 and Example 2 can be tested by the CreLuc method. The specific steps are as follows: The stably transfected cell lines HEK293/pGM-CREB-L-Luc/GLP-1R pool, HEK293/pGM-CREB-L-Luc/GIPR pool, and 293HEK/pGM-CREB-L-Luc/GCGR pool were constructed. […] The corresponding test cells were digested (1 min), dispersed by pipetting, and centrifuged (1000 rpm, 5 min). The culture medium was discarded, and the cells were resuspended in freestyle medium, centrifuged again, collected, and counted. The cells were then diluted to a cell density of 5 x 10^5 cells/mL and then added to the detection wells of a 384-well plate (40 µL/20,000 cells/well). Echo was used to add the corresponding analyte dilution series. The cell plate was incubated at 37°C and 5% CO2 for 6 h, then ONE-GLO (20 µL/well) was added for detection. It was kept in the dark for 3 min, then a chemiluminescent microplate reader was used for determination. The plate was read within 30 min, and the determination results were recorded. […] Table 3: EC50 values for target peptide derivatives

GIPR = target: T2, GIPR (Homo sapiens, UniProt P48546); experiment: CreLuc method (CRE-luciferase reporter), HEK293/pGM-CREB-L-Luc/GIPR pool; details: 6 h incubation, read-out: EC50 (pM) for each receptor GIPR
T2 construct: expressed in transfected cells
T2 sequence (P48546 22-466): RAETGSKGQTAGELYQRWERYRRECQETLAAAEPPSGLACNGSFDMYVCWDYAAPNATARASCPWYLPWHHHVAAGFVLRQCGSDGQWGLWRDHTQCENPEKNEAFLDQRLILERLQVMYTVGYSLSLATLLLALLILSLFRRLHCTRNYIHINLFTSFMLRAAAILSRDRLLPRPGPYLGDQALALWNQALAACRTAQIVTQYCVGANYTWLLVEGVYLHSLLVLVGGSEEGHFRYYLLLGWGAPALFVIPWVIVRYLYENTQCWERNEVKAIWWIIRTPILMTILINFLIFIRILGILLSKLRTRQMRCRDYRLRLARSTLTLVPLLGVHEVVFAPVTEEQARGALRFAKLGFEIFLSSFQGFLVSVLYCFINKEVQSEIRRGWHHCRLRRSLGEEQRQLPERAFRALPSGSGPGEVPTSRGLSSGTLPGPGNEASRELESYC
Protocol: as §1

GCGR = target: T3, GCGR (Homo sapiens, UniProt P47871); experiment: CreLuc method (CRE-luciferase reporter), 293HEK/pGM-CREB-L-Luc/GCGR pool; details: 6 h incubation, read-out: EC50 (pM) for each receptor GCGR
T3 construct: expressed in transfected cells
T3 sequence (P47871 26-477, species assumed): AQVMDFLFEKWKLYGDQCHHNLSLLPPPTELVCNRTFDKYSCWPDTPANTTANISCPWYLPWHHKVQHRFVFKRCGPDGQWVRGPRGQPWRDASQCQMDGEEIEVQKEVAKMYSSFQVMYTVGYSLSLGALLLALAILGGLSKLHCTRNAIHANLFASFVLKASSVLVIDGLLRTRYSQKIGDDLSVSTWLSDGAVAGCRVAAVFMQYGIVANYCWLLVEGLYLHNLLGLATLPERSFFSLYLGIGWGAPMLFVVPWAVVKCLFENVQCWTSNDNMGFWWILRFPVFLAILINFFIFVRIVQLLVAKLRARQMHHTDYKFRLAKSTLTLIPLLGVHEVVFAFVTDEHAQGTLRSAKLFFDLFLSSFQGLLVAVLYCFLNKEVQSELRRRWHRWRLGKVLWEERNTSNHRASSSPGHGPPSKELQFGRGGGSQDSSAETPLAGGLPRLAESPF
Protocol: as §1

Q: CC[C@H](C)[C@H](NC(=O)[C@H](CO)NC(=O)[C@H](Cc1ccc(O)cc1)NC(=O)[C@H](CC(=O)O)NC(=O)[C@H](CO)NC(=O)[C@@H](NC(=O)[C@H](Cc1ccccc1)NC(=O)[C@@H](NC(=O)CNC(=O)[C@H](Cc1c[nH]cn1)NC(=O)C(C)(C)NC(=O)[C@@H](N)Cc1c[nH]cn1)[C@@H](C)O)[C@@H](C)O)C(=O)N[C@@H](Cc1ccc(O)cc1)C(=O)N[C@H]1CSCC(=O)NCCN(C(=O)CCC(=O)NCCOCCOCC(=O)NCCOCCOCC(=O)NCCCC[C@H](NC(=O)CCCCCCCCCCCCCCCCCCC(=O)O)C(=O)O)CCNC(=O)CSC[C@@H](C(=O)N[C@@H](Cc2ccccc2)C(=O)N[C@H](C(=O)N[C@@H](CCC(N)=O)C(=O)N[C@@H](Cc2c[nH]c3ccccc23)C(=O)N[C@@H](CC(C)C)C(=O)N[C@@H](CC(C)C)C(=O)N[C@@H](CCC(=O)O)C(=O)NCC(=O)NCC(=O)N2CCC[C@H]2C(=O)N[C@@H](CO)C(=O)N[C@@H](CO)C(=O)NCC(=O)N[C@@H](C)C(=O)N2CCC[C@H]2C(=O)N2CCC[C@H]2C(=O)N2CCC[C@H]2C(=O)N[C@@H](CO)C(N)=O)C(C)C)NC(=O)C(C)(C)NC(=O)[C@H](C)NC(=O)[C@H](Cc2ccc(O)cc2)NC(=O)[C@H](CCCNC(=N)N)NC(=O)[C@H](CCCCN)NC(=O)[C@H](CCC(=O)O)NC1=O [TG8] was tested. Which EC50 (GLP-1R) did it give?
A: 243 pM

Q: And the EC50 (GIPR)?
A: 426 pM

Q: And the EC50 (GCGR)?
A: 836 pM

Q: How did the EC50 (GLP-1R) turn out when CC(=O)NCCCC[C@H](NC(=O)[C@H](CCC(=O)O)NC(=O)[C@H](CC(C)C)NC(=O)[C@H](Cc1ccc(O)cc1)NC(=O)[C@H](CCCCN)NC(=O)[C@H](CO)NC(=O)[C@H](Cc1ccc(O)cc1)NC(=O)[C@H](CC(=O)O)NC(=O)[C@H](CO)NC(=O)[C@@H](NC(=O)[C@H](Cc1ccccc1)NC(=O)[C@@H](NC(=O)CNC(=O)[C@H](Cc1c[nH]cn1)NC(=O)C(C)(C)NC(=O)[C@@H](N)Cc1c[nH]cn1)[C@@H](C)O)[C@@H](C)O)C(=O)N[C@@H](CCCCN)C(=O)N[C@@H](Cc1ccc(O)cc1)C(=O)N[C@@H](C)C(=O)NC(C)(C)C(=O)N[C@H]1CSCC(=O)NCCN(C(=O)CCC(=O)NCCOCCOCC(=O)NCCOCCOCC(=O)NCCCC[C@H](NC(=O)CCCCCCCCCCCCCCCCCCC(=O)O)C(=O)O)CCNC(=O)CSC[C@@H](C(=O)NCC(=O)NCC(=O)N2CCC[C@H]2C(=O)N[C@@H](CO)C(=O)N[C@@H](CO)C(=O)NCC(=O)N[C@@H](C)C(=O)N2CCC[C@H]2C(=O)N2CCC[C@H]2C(=O)N2CCC[C@H]2C(=O)N[C@@H](CO)C(N)=O)NC(=O)[C@H](CC(C)C)NC(=O)[C@H](CC(C)C)NC(=O)[C@H](Cc2c[nH]c3ccccc23)NC(=O)[C@H](CCC(N)=O)NC(=O)[C@H](C(C)C)NC(=O)[C@H](Cc2ccccc2)NC1=O [TG14] (H-H[Aib]HGTFTSDYSKYLEK(Ac)KYA[Aib]CFVQWLLCGGPSSGAPPPS-NH2; linker 21-28 via X1) was run?
A: 311 pM

Q: And the EC50 (GIPR)?
A: 752 pM

Q: And the EC50 (GCGR)?
A: 277 pM

Q: Which results are given for CC[C@H](C)[C@@H]1NC(=O)[C@H](Cc2ccccc2)NC(=O)[C@@H](NC(=O)C(C)(C)NC(=O)[C@H](CCC(N)=O)NC(=O)[C@H](C)NC(=O)[C@H](CCCCNC(C)=O)NC(=O)[C@H](CCCCN)NC(=O)[C@H](CC(=O)O)NC(=O)[C@H](CC(C)C)NC(=O)[C@](C)(CC(C)C)NC(=O)[C@@H](NC(=O)[C@H](CO)NC(=O)[C@H](Cc2ccc(O)cc2)NC(=O)[C@H](CC(=O)O)NC(=O)[C@H](CO)NC(=O)[C@@H](NC(=O)[C@H](Cc2ccccc2)NC(=O)[C@@H](NC(=O)CNC(=O)[C@H](CCC(N)=O)NC(=O)[C@@H](CO)NC(=O)[C@@H](N)Cc2ccc(O)cc2)[C@@H](C)O)[C@@H](C)O)[C@@H](C)CC)CSCC(=O)NCCN(C(=O)CCC(=O)NCCOCCOCC(=O)NCCOCCOCC(=O)NCCCC[C@H](NC(=O)CCCCCCCCCCCCCCCCCCC(=O)O)C(=O)O)CCNC(=O)CSC[C@@H](C(=O)NCC(=O)NCC(=O)N2CCC[C@H]2C(=O)N[C@@H](CO)C(=O)N[C@@H](CO)C(=O)NCC(=O)N[C@@H](C)C(=O)N2CCC[C@H]2C(=O)N2CCC[C@H]2C(=O)N2CCC[C@H]2C(=O)N[C@@H](CO)C(N)=O)NC(=O)[C@H](CC(C)C)NC(=O)[C@H](CC(C)C)NC(=O)[C@H](Cc2ccc(O)cc2)NC(=O)[C@H](CCC(=O)O)NC1=O [TG22] (H-Y[dS]QGTFTSDYSI[αMeL]LDKK(Ac)AQ[Aib]CFIEYLLCGGPSSGAPPPS-NH2; linker 21-28 via X1)?
A: EC50 (GLP-1R): 665 pM; EC50 (GIPR): 18.3 pM; EC50 (GCGR): 205 pM

Q: CC[C@H](C)[C@@H]1NC(=O)[C@H](Cc2ccccc2)NC(=O)[C@@H](NC(=O)C(C)(C)NC(=O)[C@H](CCC(N)=O)NC(=O)[C@H](C)NC(=O)[C@H](CCCCNC(C)=O)NC(=O)[C@H](CCCCN)NC(=O)[C@H](CC(=O)O)NC(=O)[C@H](CC(C)C)NC(=O)[C@](C)(CC(C)C)NC(=O)[C@@H](NC(=O)[C@H](CO)NC(=O)[C@H](Cc2ccc(O)cc2)NC(=O)[C@H](CC(=O)O)NC(=O)[C@H](CO)NC(=O)[C@@H](NC(=O)[C@](C)(Cc2ccccc2)NC(=O)[C@@H](NC(=O)CNC(=O)[C@H](CCC(N)=O)NC(=O)C(C)(C)NC(=O)[C@@H](N)Cc2ccc(O)cc2)[C@@H](C)O)[C@@H](C)O)[C@@H](C)CC)CSCC(=O)NCCN(C(=O)CCC(=O)NCCOCCOCC(=O)NCCOCCOCC(=O)NCCCC[C@H](NC(=O)CCCCCCCCCCCCCCCCCCC(=O)O)C(=O)O)CCNC(=O)CSC[C@@H](C(=O)NCC(=O)NCC(=O)N2CCC[C@H]2C(=O)N[C@@H](CO)C(=O)N[C@@H](CO)C(=O)NCC(=O)N[C@@H](C)C(=O)N2CCC[C@H]2C(=O)N2CCC[C@H]2C(=O)N2CCC[C@H]2C(=O)N[C@@H](CO)C(N)=O)NC(=O)[C@H](CC(C)C)NC(=O)[C@H](CC(C)C)NC(=O)[C@H](Cc2ccc(O)cc2)NC(=O)[C@H](CCC(=O)O)NC1=O [TG23] was tested. Which EC50 (GLP-1R) did it give?
A: 92.9 pM

Q: And the EC50 (GIPR)?
A: 75.6 pM

Q: And the EC50 (GCGR)?
A: 109 pM

Q: Which EC50 (GLP-1R) does the source give for CC[C@H](C)[C@@H]1NC(=O)[C@H](Cc2ccccc2)NC(=O)[C@@H](NC(=O)C(C)(C)NC(=O)[C@H](CCC(N)=O)NC(=O)[C@H](C)NC(=O)[C@H](CCCCNC(C)=O)NC(=O)[C@H](CCCCN)NC(=O)[C@H](CC(=O)O)NC(=O)[C@H](CC(C)(C)C)NC(=O)[C@](C)(CC(C)C)NC(=O)[C@@H](NC(=O)[C@H](CO)NC(=O)[C@H](Cc2ccc(O)cc2)NC(=O)[C@H](CC(=O)O)NC(=O)[C@H](CO)NC(=O)[C@@H](NC(=O)[C@H](Cc2ccccc2)NC(=O)[C@@H](NC(=O)CNC(=O)[C@H](CCC(N)=O)NC(=O)C(C)(C)NC(=O)[C@@H](N)Cc2ccc(O)cc2)[C@@H](C)O)[C@@H](C)O)[C@@H](C)CC)CSCC(=O)NCCN(C(=O)CCC(=O)NCCOCCOCC(=O)NCCOCCOCC(=O)NCCCC[C@H](NC(=O)CCCCCCCCCCCCCCCCCCC(=O)O)C(=O)O)CCNC(=O)CSC[C@@H](C(=O)NCC(=O)NCC(=O)N2CCC[C@H]2C(=O)N[C@@H](CO)C(=O)N[C@@H](CO)C(=O)NCC(=O)N[C@@H](C)C(=O)N2CCC[C@H]2C(=O)N2CCC[C@H]2C(=O)N2CCC[C@H]2C(=O)N[C@@H](CO)C(N)=O)NC(=O)[C@H](CC(C)C)NC(=O)[C@H](CC(C)C)NC(=O)[C@H](Cc2ccc(O)cc2)NC(=O)[C@H](CCC(=O)O)NC1=O [TG26] (H-Y[Aib]QGTFTSDYSI[αMeL][tBuAla]DKK(Ac)AQ[Aib]CFIEYLLCGGPSSGAPPPS-NH2; linker 21-28 via X1) here?
A: 149 pM

Q: And the EC50 (GIPR)?
A: 59.4 pM

Q: What about the EC50 (GCGR) of the same molecule?
A: 360 pM
